The subject of test [1] is trehalose content of wild-type C. albicans. Briefly: Trehalose measurement (colorimetric glucose assay after trehalase). The test is classed as cell-based. Particulars: 0.5 mM 4456dh. The procedure:
Given that 4456dh inhibits the activity of CaTps1 and CnTps1 in vitro and has bioactivity against multiple Candida and Cryptococcus species, we tested whether 4456dh affects trehalose production in cells. We quantified trehalose levels in cells treated with 4456dh at sub-lethal concentrations as determined by the MIC assays using a colorimetric spectrophotometric assay. We measured trehalose production in wild-type C. albicans at 30°C and 42°C, in the presence and absence of 4456dh. […] However, we observed a significant increase in trehalose content when C. albicans was exposed to high temperature stress (P < 0.0001; Fig. 5A).
Fig 5 4456dh treatment results in reduced trehalose accumulation and a decrease in Tps1-dependent virulence factors. […] Trehalose was measured using a colorimetric glucose assay after treatment of cultures with trehalase. […] Cells were harvested, stained in India Ink, and analyzed using differential interference contrast imaging. […]
(§1) 124 technical replicates. Growth, as determined by a reading of absorbance at 600 nm, was
125 normalized to untreated controls and was corrected for the absorbance of 4456dh in the YPD […]
(§2) 129 overnight cultures was quantified by measuring the OD600 and corrected for the background
130 absorbance of the medium. Antifungal potency for 4456dh was assessed by minimum inhibitory […]

In another test the test system is C. deneoformans. Briefly: Zone of inhibition assay. The test is classed as cell-based. The procedure:
To test this hypothesis, we performed zone of inhibition studies in the C. deneoformans background (Fig. S8A).
123 hours. All dose- response assays were performed in biological triplicate with a minimum of three
as §1
125 normalized to untreated controls and was corrected for the absorbance of 4456dh in the YPD
126 medium. Growth was plotted as a heat map using Excel.
127 Wild-t y pe C. neoformans strains H99, wild-type C. deneoformans JEC21 and wild- t y pe C. gattii
128 R265 were cultured overnight in YPD (yeast-peptone- dextrose) medium at 30 °C. Growth of the
as §2
130 absorbance of the medium. Antifungal potency for 4456dh was assessed by minimum inhibitory
131 concentration (MIC) dose-response assays performed under standard Clinical and Lab Standards […]
137 replicates. Growth, as determined by a reading of absorbance at 600 nm, was normalized to
138 untreated controls and was corrected for the absorbance of 4456dh in the YPD medium. […]
139 minimum inhibitory concentration causing 80% growth reduction, or MIC80, was determined based […]
149 mM 4456dh. The OD600 was determined followed by dilution of overnight cultures to an equivalent […]
157 Optical density (OD600) was determined with an Infinite PRO plate reader ( Tecan). […]

Here are results for one compound from PMC12505902, “Inhibitors of trehalose-6-phosphate synthase activity in fungal pathogens compromise thermal tolerance pathways” (mBio, 2025).

Turning to `Cn1cc(-c2csc(NC(=O)Cc3ccccn3)n2)cn1` [Compound 4456dh], the figures for the “change in trehalose content” value in test [1] (30°C) and in test [1] (42°C) were “no significant change detected” and “approximate twofold decrease”, respectively. The zone of inhibition entry in the test on C. deneoformans (C. deneoformans tps1Δ cells, 30°C) is recorded as “diffuse yet visible zone of inhibition”; with C. deneoformans (C. deneoformans wild-type (JEC21, JEC20), 37°C) it was “distinct zone of inhibition”.
